Data taken from the NIST ThermoML archive (doi:10.1016/j.jct.2007.11.006).
Numbers after ± are expanded uncertainties.

Tests used:
[1] = Molar enthalpy of transition or fusion; details: Crystal; DSC
[2] = molar enthalpy of vaporization or sublimation; details: 298.15 K; Crystal; Drop sublimation at initial T = 411 K and adjusted to 298.15 K
[3] = Crystal

Molar enthalpy of transition or fusion [1]: 31.9 ± 2.7 kJ/mol | molar enthalpy [2]: 125 ± 6.2 kJ/mol | mass density ([3]; 298.1 K, 101.33 kPa, mass of pellet and dimensions): 1080 ± 10 kg/m3 | Normal melting temperature ([3]; DTA): 147.02 ± 0.43 °C
SMILES: COc1cc(O)cc(OC)c1OC [3,4,5-trimethoxyphenol]
